Entries after “also recorded” stand apart in the source; their conditions may differ.
Columns and labels:
Format in all cases: cell-based, Pichia pastoris
[1] = system: P. pastoris strain (YGLY27893) which produces an antibody Fc-fragment; test: Effect of maltitol with or without sorbitol on cell robustness; details: BSGY medium with maltitol 50 g/L
Method: Using a P. pastoris strain (YGLY27893) which produces an antibody Fc-fragment, the osmoprotective effect of combining sorbitol and maltitol was tested as follows: sorbitol(−) maltitol(−); sorbito(+) maltitol(−); […] maltito(+). The concentrations of sorbitol and maltitol were 18 g/L and 50 g/L respectivetly. (Note: Sorbitol(+) maltito(−) is identical to BSGY medium).
The cell growth was expressed as [Cell (t)]/[Cell (0)]×100(%), here, [Cell (t)] is the wet cell weight at t (h) of induction and [Cell (0)] is the wet cell weight at 0 (h) of induction, because the cell density at the beginning of induction in each case was different due to absence or presence of sorbitol as a fermentable sugar. The cell was heavily lysed around 80 h of induction in BSGY medium without maltitol, whereas the cell was continuously grown for 150 h of induction in BSGY medium with maltitol (FIG. 4). I re-draw the FIG. 4 as shown in the last page (p 47 after FIG. 5).

[2] = system: P. pastoris YGLY21058 strain producing glycosylated insulin precursor (GIP); test: Screening of sugars and sugar alcohols as osmoprotectants in fed-batch cultivation
Method: The P. pastoris YGLY21058 strain was cultivated in 1 L glass bioreactors (DASGIP, Germany). For fermentation in 1 L bioreactor, a vial (1 mL) of RCB (Research Cell Bank) was inoculated into 200 mL of Seed medium in 1 L-baffled flask. The culture incubated at 24° C., while shaking on an orbital shaker at 180 rpm for 48±4 h. The bioreactor was inoculated with a 10% volumetric ratio of seed to initial BSGY medium. Cultivation conditions were following: temperature set at 24±0.5° C., pH controlled at 6.5±0.1 with 30% ammonium hydroxide, dissolved oxygen was maintained at 20% of saturation by cascading agitation rate on the addition of pure oxygen to the fixed airflow rate of 0.7 vvm. After depletion of the initial glycerol (4%), a 50% glycerol solution containing 12.5 mL/L of PTM1 salts (6.5 g FeSO4.7H2O, 2.0 g ZnCl2, 0.6 g CuSO4.5H2O, 3.0 g MnSO4.7H2O, 0.5 g CoCl2.6H2O, 0.2 g NaMoO4.2H2O, 0.2 g biotin, 80 mg NaI, 20 mg H3BO4 per L) was fed constantly at an initial rate of 0.08 h^−1 for 8 h. Induction was initiated after a 30 min starvation phase when methanol was fed. Methanol was fed constantly starting at 1.33 g/L/h under methanol limited condition. Agitation speed was changed from cascade mode with agitation speed and pure oxygen.
For comparisons, each sugar or sugar alcohol was added at 50 g/L in initial batch medium of BSGY. In case of control without sugar supplementation (BSGY medium only), glycosylated insulin precursor (GIP) was detectable at 58 h of induction, but not detected at 80 h of induction due to most likely proteolytic degradation caused by heavy cell lysis (Lanes 1 and 2 of FIG. 2 A).

[3] = system: P. pastrois strain yGLY21058; test: Fermentability of sugars or sugar alcohols on M agar plate; details: 6 days at 30° C.
Method: The 1 mL of RCB (Research Cell Bank in 20% of glycerol) for P. pastrois strain yGLY21058 producing glycosylated insulin precursor (GIP) was inoculated in 200 mL of Seed medium (4% glycerol, 1% yeast extract, 2% soytone, 1.34% YNB without amino acids, 0.23% K2HPO4, 1.19% KH2PO4, 8 μg/L biotin) and cultivated for 48 h at 24° C. The cell pellet was harvested by centrifugation at 4,000 rpm for 10 min and re-suspended with PBS buffer (pH 7.4) to wash the cell twice. The 0.1 mL of cell suspension with wash buffer was transferred and spread onto the minimal agar plate containing each sugar or sugar alcohol (1% w/v), which is listed in Table 1.
YPD (1% yeast extract, 2% yeast peptone, and 1% glucose) agar plate was used for the positive control and a minimal agar plate without carbon sources (M) was used for negative control. Growth of Pichia pastoris on M agar plate containing single carbon source was categorized as no (−), slow (+), moderate (++), and fast (+++) colony formation for 6 days in Table 1.

[4] = system: P. pastoris YGLY 21058 strain; test: Fermentability of sorbitol and maltitol determined by HPLC; details: BSGY; maltitol 50 g/L; methanol induction phase
Method: The P. pastoris YGLY 21058 strain was cultivated in 1 L bioreactor and 50 g/L of maltitol was mixed in BSGY medium. The samples were taken at the beginning of fermentation, at the end of glycerol fed-batch before adding maltitol, and two different time-points in methanol induction phase, as shown in FIG. 3. The supernatant was separated by the centrifugation at 13,000 rpm for 1 minutes using micro-centrifuge. The samples properly diluted with distilled water were filtered using 0.2 μm-filter and the residual concentrations of sorbitol and maltitol were determined by HPLC using AMINEX HPX-87H column. The residence times (RTs) for sorbitol and maltitol were 11.5 and 9.3 min respectively. The data were shown in FIG. 3 as two independent runs of cultivation.

Question: Which results are given for OC[C@@H](O)[C@@H](O[C@H]1O[C@H](CO)[C@@H](O)[C@H](O)[C@H]1O)[C@H](O)[C@@H](O)CO [Maltitol, 4-O-α-glucopyranosyl-D-sorbitol]?
Answer: Time of continuous cell growth in induction [1]: 150 h; Intact insulin precursor produced ([2]; 2% maltitol, 83 h of post-induction): intact protein was produced; Index of cell lysis (double stranded DNA released into culture medium) ([2]; 50 g/L in initial batch BSGY, 80 h of induction): < 1 mg DNA/L; Intact GIP molecule after 80 h-induction (SDS-PAGE) ([2]; 50 g/L in initial batch medium of BSGY): intact GIP molecule was maintained; Intact GIP produced ([2]; 80 h of induction): 100 mg/L; Robustness of Pichia production strains ([2]; methanol induction phase of cultivation): significantly improved the robustness; Volumetric productivity of GIP/insulin relative to control ([2]; vs control without supplementation): 2 fold; Fermentability category from colony formation on the plate ([3]; minimal agar plate): strict non-fermentable substrates; Growth on M agar ([3]; single carbon source 1% w/v): −; Consumption / fermentability in fed-batch fermentation (residual concentration by HPLC) [4]: not consumed; also recorded: non-fermentable
